Patent US8557840B2, “Herbicidal compounds” (Syngenta Limited, priority 2008, dated 2013)

Columns and labels:
Assay type in all cases: in vivo
[1] = system: test plants; assay: Herbicidal action, post-emergence (Example B1), all test plants, result in words; conditions: same protocol as Example B1, post-emergence
Experimental: Seeds of a variety of test species were sown in sterilised standard soil in seed trays each having 96 cells. […] The plants were grown in the climatic chamber after application at (24/19° C., day/night; 13 hours light; 50-60% humidity) and watered twice daily. After 9 days until the test was evaluated (10=total damage to plant, 0=no damage to plant)

[2] = system: Ipomea hederaceae; assay: Herbicidal action, post-emergence, pots in glasshouse (Example B2); conditions: 1000 g/ha, evaluated after 13 days, 10=total damage to plant, 0=no damage to plant
Experimental: (§1) Seeds of a variety of test species were sown in standard soil in pots. After 8 days cultivation (post-emergence) under controlled conditions in a glasshouse (at 24/16° C., day/night; 14 hours light; 65% humidity), the plants were sprayed with an aqueous spray solution derived from the formulation of the technical active ingredient in acetone/water (50:50) solution containing 0.5% Tween 20 (polyoxyethelyene sorbitan monolaurate, CAS RN 9005-64-5). The test plants were then grown in a glasshouse under controlled conditions in a glasshouse (at 24/16° C., day/night; 14 hours light; 65% humidity) and watered twice daily. After 13 days, the test was evaluated (10=total damage to plant; 0=no damage to plant).

[3] = system: Amaranthus retroflexus; assay: as above; conditions: 1000 g/ha, evaluated after 13 days, 10=total damage to plant, 0=no damage to plant
Experimental: as §1

[4] = system: Solanum nigrum; assay: as above; conditions: 1000 g/ha, evaluated after 13 days, 10=total damage to plant, 0=no damage to plant
Experimental: as §1

[5] = system: Echinochloa crus-galli; assay: as above; conditions: 1000 g/ha, evaluated after 13 days, 10=total damage to plant, 0=no damage to plant
Experimental: as §1

[6] = system: Setaria faberi; assay: as above; conditions: 1000 g/ha, evaluated after 13 days, 10=total damage to plant, 0=no damage to plant
Experimental: as §1

Row | SMILES | damage to the test plants [1] | IPOHE damage to plant [2] | AMARE damage to plant [3] | SOLNI damage to plant [4] | ECHCG damage to plant [5] | SETFA damage to plant [6]
1 | O=c1[nH]c2cccnc2c(O)c1-c1ccccn1 [A8] | little or no damage | – | – | – | – | –
2 | O=c1[nH]c2cccnc2c(O)c1-c1c(F)cc(F)cc1F [A9] | little or no damage | – | – | – | – | –
3 | O=c1[nH]c2ccncc2c(O)c1-c1c(F)ccc(F)c1Cl [B2] | little or no damage | – | – | – | – | –
4 | CC(C)(C)C(=O)Oc1c(-c2c(F)ccc(F)c2Cl)c(=O)[nH]c2ccncc12 [B3] | little or no damage | – | – | – | – | –
5 | Cc1cc2c(c(Cl)n1)c(O)c(-c1c(F)ccc(F)c1Cl)c(=O)n2C [B4] | – | 2 | 0 | 2 | 0 | 0
6 | Cn1c(=O)c(-c2c(F)ccc(F)c2Cl)c(O)c2ccncc21 [C1] | – | 2 | 0 | 0 | 0 | 0
7 | CC(C)C(=O)Oc1c(-c2c(F)ccc(F)c2Cl)c(=O)n(C)c2cnccc12 [C2] | – | 5 | 3 | 2 | 0 | 0
8 | O=c1[nH]c2cnccc2c(O)c1-c1c(F)cc(F)cc1F [C3] | little or no damage | – | – | – | – | –
9 | O=c1[nH]c2ncccc2c(O)c1-c1ccc(Cl)cc1Cl [D1, 3-(2,4-dichloro-phenyl)-4-hydroxy-1H-[1,8]naphthyridin-2-one] | little or no damage | – | – | – | – | –
10 | O=c1[nH]c2ncccc2c(O)c1-c1c(Cl)cccc1Cl [D2] | little or no damage | – | – | – | – | –
11 | O=c1[nH]c2ncccc2c(O)c1-c1ccccc1OC(F)(F)F [D3] | little or no damage | – | – | – | – | –
12 | O=c1[nH]c2ncccc2c(O)c1-c1c(F)ccc(F)c1Cl [D4] | little or no damage | – | – | – | – | –
13 | CC(C)(C)C(=O)Oc1c(-c2c(F)ccc(F)c2Cl)c(=O)n(CC(F)F)c2ncccc12 [D10, 2,2-dimethyl-propionic acid 3-(2-chloro-3,6-difluoro-phenyl)-1-(2,2-difluoro-ethyl)-2-oxo-1,2-dihydro-[1,8]naphthyridin-4-yl ester] | – | 6 | 7 | 7 | 0 | 0
14 | O=c1[nH]c2ncccc2c(O)c1-c1cccnc1 [D11, 4-Hydroxy-3-pyridin-3-yl-1H-[1,8]naphthyridin-2-one] | little or no damage | – | – | – | – | –
15 | O=c1[nH]c2ncccc2c(O)c1-c1ccccn1 [D12] | little or no damage | – | – | – | – | –
16 | O=c1[nH]c2nc(Cl)ccc2c(O)c1-c1c(F)ccc(F)c1Cl [D14] | – | 0 | 4 | 0 | 4 | 0
17 | CC(C)(C)C(=O)Oc1c(-c2c(F)ccc(F)c2Cl)c(=O)[nH]c2nc(Cl)ccc12 [D15] | little or no damage | – | – | – | – | –
18 | Cn1c(=O)c(-c2c(F)ccc(F)c2Cl)c(OC(=O)C(C)(C)C)c2ccc(Cl)nc21 [D16] | – | 2 | 2 | 2 | 0 | 0

Row | SMILES | damage to the test plants [1] | IPOHE damage to plant [2] | AMARE damage to plant [3] | SOLNI damage to plant [4] | ECHCG damage to plant [5] | SETFA damage to plant [6]
19 | O=c1c(-c2c(F)ccc(F)c2Cl)c(O)c2ccc(Cl)nc2n1CC(F)F [D17] | – | 5 | 6 | 6 | 0 | 0
20 | Cc1cc(Cl)c2c(O)c(-c3c(F)ccc(F)c3Cl)c(=O)n(C)c2n1 [D18] | – | 0 | 2 | 3 | 0 | 2
21 | O=c1c(-c2c(F)ccc(F)c2Cl)c(O)c2cccnc2n1CC(F)F [D21, 3-(2-chloro-3,6-difluoro-phenyl)-1-(2,2-difluoro-ethyl)-4-hydroxy-1H-[1,8]naphthyridin-2-one] | – | 9 | 10 | 10 | 2 | 1
22 | Cn1c(=O)c(-c2c(F)ccc(F)c2Cl)c(O)c2ccc(Cl)nc21 [D22] | – | 6 | 2 | 4 | 1 | 0
23 | CC(C)C(=O)Oc1c(-c2c(F)ccc(Br)c2Cl)c(=O)n(CC(F)F)c2ncccc12 [D23, isobutyric acid 3-(3-bromo-2-chloro-6-fluoro-phenyl)-1-(2,2-difluoro-ethyl)-2-oxo-1,2-dihydro-[1,8]naphthyridin-4-yl ester] | – | 4 | 4 | 9 | 1 | 0
24 | Cc1cc(C)c(-c2c(O)c3cccnc3n(C)c2=O)c(C)c1 [D24] | – | 1 | 0 | 1 | 0 | 0
25 | COc1cccc(-c2c(O)c3cccnc3[nH]c2=O)c1 [D25] | little or no damage | – | – | – | – | –
26 | CCn1c(=O)c(-c2c(F)ccc(Cl)c2Cl)c(O)c2c(OC)ccnc21 [D26] | – | 6 | 6 | 6 | 4 | 4
27 | Cn1c(=O)c(-c2c(F)ccc(F)c2Cl)c(O)c2ccc(C(F)(F)F)nc21 [D29] | – | 7 | 6 | 4 | 0 | 0
28 | Cn1c(=O)c(-c2c(F)ccc(F)c2Cl)c(OC(=O)C(C)(C)C)c2ccc(C(F)(F)F)nc21 [D30] | – | 2 | 0 | 2 | 0 | 0
29 | CC(C)(C)C(=O)Oc1c(-c2c(F)ccc(F)c2Cl)c(=O)[nH]c2nc(C(F)(F)F)ccc12 [D31] | – | 1 | 0 | 0 | 0 | 0
30 | O=c1c(-c2c(F)ccc(Br)c2Cl)c(O)c2cccnc2n1CC(F)F [D32] | – | 6 | 4 | 7 | 1 | 1
31 | O=c1[nH]c2ncccc2c(O)c1-c1c(F)ccc(Br)c1Cl [D33] | – | 7 | 1 | 3 | 0 | 0
32 | CCn1c(=O)c(-c2c(F)ccc(F)c2Cl)c(OC(=O)C(C)C)c2cncnc21 [E2] | – | 2 | 5 | 4 | 2 | 0
33 | CC(C)C(=O)Oc1c(-c2c(F)ccc(F)c2Cl)c(=O)n(CC(F)F)c2ncncc12 [E3] | – | 1 | 7 | 5 | 0 | 0
34 | CCOC(=O)Oc1c(-c2c(C)cc(C)cc2C)c(=O)[nH]c2nncnc12 [E9] | – | 1 | 0 | 0 | 10 | 9
35 | Cc1cc(C)c(-c2c(O)c3ncnnc3[nH]c2=O)c(C)c1 [E12] | – | 3 | 5 | 1 | 10 | 10
